In PubChem BioAssay AID256 (DTP/NCI, 2004):
Toxic doses and inconclusive results are not listed.

Test system: CD2F1 mice, L1210 leukemia ip, survival T/C
Test: NCI In Vivo Anticancer Drug Screen. Data for tumor model L1210 Leukemia (intraperitoneal) in CD2F1 (CDF1) mice
Conditions: endpoint: mean survival time, higher = longer survival
Outline: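 In this screen, transplantable tumors were grown in mice given either the compound or its vehicle. Results were expressed as the treated measurement relative to the control measurement.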

[1] = dose: 25.0 mg/kg/injection, schedule: Q04DX003 (ip), vehicle: saline with Tween-80
[2] = dose: 100.0 mg/kg/injection, schedule: Q04DX003 (ip), vehicle: saline with Tween-80
[3] = dose: 100.0 mg/kg/injection, schedule: Q01DX009 (ip), vehicle: saline with Tween-80
[4] = dose: 200.0 mg/kg/injection, schedule: Q01DX009 (ip), vehicle: saline with Tween-80
[5] = dose: 400.0 mg/kg/injection, schedule: Q01DX009 (ip), vehicle: saline with Tween-80
[6] = dose: 100.0 mg/kg/injection, schedule: Q04DX002 (ip), vehicle: saline with Tween-80
[7] = dose: 200.0 mg/kg/injection, schedule: Q04DX003 (ip), vehicle: saline with Tween-80
[8] = dose: 400.0 mg/kg/injection, schedule: Q04DX003 (ip), vehicle: saline with Tween-80
[9] = dose: 50.0 mg/kg/injection, schedule: Q01DX009 (ip), vehicle: saline with Tween-80

S=c1cc[nH]c(=S)[nH]1
T/C (dose: 12.5 mg/kg/injection, schedule: Q01DX009 (ip), vehicle: Klucel (hydroxypropylcellulose) (HPC)): 102 % of control | T/C (dose: 25.0 mg/kg/injection, schedule: Q01DX009 (ip), vehicle: Klucel (hydroxypropylcellulose) (HPC)): 98 % of control | T/C (dose: 50.0 mg/kg/injection, schedule: Q01DX009 (ip), vehicle: Klucel (hydroxypropylcellulose) (HPC)): 101 % of control

NC(=O)NNc1ccc([N+](=O)[O-])cc1[N+](=O)[O-]
T/C [1]: 93 % of control | T/C (dose: 50.0 mg/kg/injection, schedule: Q04DX003 (ip), vehicle: saline with Tween-80): 89 % of control | T/C [2]: 97 % of control

[Cl][Pt+2][Cl].[NH-]c1ccccc1F.[NH-]c1ccccc1F
T/C (dose: 15.63 mg/kg/injection, schedule: Q04DX003 (ip), vehicle: saline with Tween-80): 112 % of control | T/C (dose: 31.25 mg/kg/injection, schedule: Q04DX003 (ip), vehicle: saline with Tween-80): 108 % of control | T/C (dose: 62.5 mg/kg/injection, schedule: Q04DX003 (ip), vehicle: saline with Tween-80): 115 % of control | T/C (dose: 125.0 mg/kg/injection, schedule: Q04DX003 (ip), vehicle: saline with Tween-80): 93 % of control

N#CCCN(CCCN1CCOCC1)C(=S)Nc1ccc(Cl)cc1
T/C [3]: 104 % of control | T/C [4]: 104 % of control | T/C [5]: 93 % of control

CCN(CC)c1ccc(N(C(C)=O)C(C)=O)cc1
T/C (dose: 6.25 mg/kg/injection, schedule: Q04DX003 (ip), vehicle: saline with Tween-80): 91 % of control | T/C (dose: 12.5 mg/kg/injection, schedule: Q04DX003 (ip), vehicle: saline with Tween-80): 95 % of control | T/C [1]: 93 % of control

Nc1nc(N)nc(Cl)n1
T/C (dose: 25.0 mg/kg/injection, schedule: Q04DX002 (ip), vehicle: saline with Tween-80): 90 % of control | T/C (dose: 50.0 mg/kg/injection, schedule: Q04DX002 (ip), vehicle: saline with Tween-80): 101 % of control | T/C [6]: 90 % of control

O=c1[nH]cc(N=Cc2ccccc2O)c(=O)[nH]1.[Cl][Pt]
T/C (dose: 3.13 mg/kg/injection, schedule: Q04DX003 (ip), vehicle: water): 96 % of control | T/C (dose: 6.25 mg/kg/injection, schedule: Q04DX003 (ip), vehicle: water): 96 % of control | T/C (dose: 12.5 mg/kg/injection, schedule: Q04DX003 (ip), vehicle: water): 97 % of control | T/C (dose: 25.0 mg/kg/injection, schedule: Q04DX003 (ip), vehicle: water): 108 % of control | T/C (dose: 50.0 mg/kg/injection, schedule: Q04DX003 (ip), vehicle: water): 102 % of control | T/C (dose: 100.0 mg/kg/injection, schedule: Q04DX003 (ip), vehicle: water): 100 % of control | T/C (dose: 200.0 mg/kg/injection, schedule: Q04DX003 (ip), vehicle: water): 108 % of control

O=[N+]([O-])c1ccc(C2Nc3cc(Cl)c(Cl)cc3S(=O)(=O)N2O)cc1 (centres undefined)
T/C (dose: 100.0 mg/kg/injection, schedule: Q01DX001 (ip), vehicle: saline with Tween-80): 97 % of control | T/C [6]: 107 % of control | T/C (dose: 200.0 mg/kg/injection, schedule: Q01DX001 (ip), vehicle: saline with Tween-80): 96 % of control | T/C (dose: 200.0 mg/kg/injection, schedule: Q04DX002 (ip), vehicle: saline with Tween-80): 107 % of control | T/C (dose: 400.0 mg/kg/injection, schedule: Q01DX001 (ip), vehicle: saline with Tween-80): 96 % of control | T/C (dose: 400.0 mg/kg/injection, schedule: Q04DX002 (ip), vehicle: saline with Tween-80): 103 % of control

COc1ccc(Cc2nc(C)cc3cc(OC)c(OC)cc23)cc1OC
T/C (dose: 25.0 mg/kg/injection, schedule: Q01DX009 (ip), vehicle: water): 92 % of control

COC1OC(CSC#N)C2OC(C)(C)OC12 (centres undefined)
T/C (dose: 5.0 mg/kg/injection, schedule: Q01DX001 (ip), vehicle: saline): 97 % of control | T/C (dose: 10.0 mg/kg/injection, schedule: Q01DX001 (ip), vehicle: saline): 101 % of control | T/C (dose: 20.0 mg/kg/injection, schedule: Q01DX001 (ip), vehicle: saline): 101 % of control | T/C (dose: 40.0 mg/kg/injection, schedule: Q01DX001 (ip), vehicle: saline): 101 % of control

CN(C)CCSc1nnc(N)s1
T/C (dose: 200.0 mg/kg/injection, schedule: Q01DX001 (ip), vehicle: saline): 100 % of control

CCCCS(=O)(=O)C1CCCC1=O (centres undefined)
T/C [2]: 102 % of control | T/C [7]: 102 % of control | T/C [8]: 102 % of control

COc1nc(-c2ccncc2)nc(N(C)C)n1
T/C (dose: 4.5 mg/kg/injection, schedule: Q04DX002 (ip), vehicle: saline): 98 % of control | T/C (dose: 9.0 mg/kg/injection, schedule: Q04DX002 (ip), vehicle: saline): 103 % of control

CCCCCCCCCCCCCC(=O)OC1C(CO)OC2C1Oc1nc(=N)ccn12 (centres undefined)
T/C (dose: 25.0 mg/kg/injection, schedule: Q01DX009 (ip), vehicle: other): 153 % of control | T/C (dose: 50.0 mg/kg/injection, schedule: Q01DX009 (ip), vehicle: other): 212 % of control | T/C (dose: 100.0 mg/kg/injection, schedule: Q01DX009 (ip), vehicle: other): 278 % of control

O=c1oc2c(ccc3ccccc32)c(O)c1-c1cccc2ccccc12
T/C [9]: 103 % of control | T/C [3]: 100 % of control | T/C [4]: 93 % of control

O=C(NO)Nc1ccccc1
T/C (dose: 8.0 mg/kg/injection, schedule: Q03HX024 (ip), vehicle: other): 101 % of control | T/C (dose: 16.0 mg/kg/injection, schedule: Q03HX024 (ip), vehicle: other): 101 % of control | T/C (dose: 32.0 mg/kg/injection, schedule: Q03HX024 (ip), vehicle: other): 101 % of control | T/C (dose: 62.0 mg/kg/injection, schedule: Q03HX024 (ip), vehicle: saline with Tween-80): 89 % of control | T/C (dose: 64.0 mg/kg/injection, schedule: Q03HX024 (ip), vehicle: other): 95 % of control | T/C (dose: 93.0 mg/kg/injection, schedule: Q03HX024 (ip), vehicle: saline with Tween-80): 86 % of control | T/C (dose: 128.0 mg/kg/injection, schedule: Q03HX024 (ip), vehicle: other): 92 % of control

O=S(=O)(/N=C/c1ccccc1)c1ccc(Cl)cc1
T/C [9]: 100 % of control | T/C [3]: 107 % of control

Cc1cccc(Cl)c1NC(=O)C(C)N1CCCC1 (centres undefined)
T/C (dose: 12.5 mg/kg/injection, schedule: Q04DX003 (ip), vehicle: saline): 100 % of control | T/C (dose: 25.0 mg/kg/injection, schedule: Q04DX003 (ip), vehicle: saline): 107 % of control | T/C (dose: 50.0 mg/kg/injection, schedule: Q04DX003 (ip), vehicle: saline): 104 % of control

N#CC1C=Cc2ccccc2N1C(=O)Oc1ccccc1 (centres undefined)
T/C (dose: 100.0 mg/kg/injection, schedule: Q01DX009 (ip), vehicle: saline): 95 % of control | T/C (dose: 200.0 mg/kg/injection, schedule: Q01DX009 (ip), vehicle: saline): 93 % of control | T/C (dose: 400.0 mg/kg/injection, schedule: Q01DX009 (ip), vehicle: saline): 89 % of control

CCCCN(CCCC)CC(O)c1cc(-c2c(Cl)cccc2Cl)nc2c(Cl)cc(Cl)cc12 (centres undefined)
T/C [2]: 86 % of control | T/C [7]: 93 % of control | T/C [8]: 96 % of control

Cc1cc2ncn(CO)c2cc1C
T/C [3]: 105 % of control | T/C [4]: 100 % of control | T/C [5]: 111 % of control

CCCC[CH2][Pb]([CH2]CCCC)([CH2]CCCC)[O]C(C)=O
T/C (dose: 0.25 mg/kg/injection, schedule: Q01DX009 (ip), vehicle: saline with Tween-80): 96 % of control | T/C (dose: 0.5 mg/kg/injection, schedule: Q01DX009 (ip), vehicle: saline with Tween-80): 93 % of control | T/C (dose: 1.0 mg/kg/injection, schedule: Q01DX009 (ip), vehicle: saline with Tween-80): 90 % of control | T/C (dose: 1.0 mg/kg/injection, schedule: Q04DX003 (ip), vehicle: saline with Tween-80): 95 % of control

CCCCCCCCCNP(=O)(OCc1ccccc1)N(CCCl)CCCl (centres undefined)
T/C (dose: 25.0 mg/kg/injection, schedule: Q01DX001 (ip), vehicle: DMSO): 94 % of control | T/C (dose: 50.0 mg/kg/injection, schedule: Q01DX001 (ip), vehicle: DMSO): 94 % of control | T/C (dose: 100.0 mg/kg/injection, schedule: Q01DX001 (ip), vehicle: DMSO): 95 % of control | T/C (dose: 200.0 mg/kg/injection, schedule: Q01DX001 (ip), vehicle: DMSO): 94 % of control | T/C (dose: 400.0 mg/kg/injection, schedule: Q01DX001 (ip), vehicle: DMSO): 91 % of control

O=C(O)CCC1(CCC(=O)O)OCCO1.[Ag]
T/C (dose: 9.5 mg/kg/injection, schedule: Q01DX009 (ip), vehicle: saline sonified): 92 % of control | T/C (dose: 18.75 mg/kg/injection, schedule: Q01DX009 (ip), vehicle: saline with Tween-80): 92 % of control | T/C (dose: 19.0 mg/kg/injection, schedule: Q01DX009 (ip), vehicle: saline sonified): 95 % of control | T/C (dose: 37.5 mg/kg/injection, schedule: Q01DX009 (ip), vehicle: saline with Tween-80): 92 % of control | T/C (dose: 38.0 mg/kg/injection, schedule: Q01DX009 (ip), vehicle: saline sonified): 95 % of control
